Results published in patent publication US10208016B2, “1-sulfonyl piperidine derivatives as modulators of prokineticin receptors” (TAKEDA PHARMACEUTICAL COMPANY LIMITED, priority 2013, dated 2019).

Biological target: human PKR1 receptors (Homo sapiens (Human), UniProt Q8TCW9)
Experiment: PKR1 antagonist calcium mobilisation assay (FLIPR), block of PK1-mediated intracellular calcium release
Type: cell-based
Settings: RBL2H3 cells expressing human PKR1; stimulation with PK1 at EC80; calcium fluorescence
Description: Prokineticin receptor 1 (PKR1) antagonists may be functionally assessed by measurement of change in intracellular calcium levels induced by Gq mediated increase in inositol triphosphate (IP3) levels. The ability of a compound to block the intracellular release of calcium mediated by PK1 in RBL2H3 cells expressing human PKR1 receptors is determined as a measure of the compound's antagonist activity in vitro.
Approximately 10,000 cells per assay well are seeded in normal culture medium in a 384 well plate (Corning). Twenty-four hours after seeding, the cells are loaded with a calcium sensitive fluorescent dye by replacing the culture medium with assay buffer (1× Hanks buffered saline, 25 mM HEPES, 0.1% w/v fatty acid free BSA (bovine serum albumin), pH 7.4) containing 1 mM probenecid and 1× Calcium 5 Reagent (Molecular Devices). Cells are incubated at 37° C. for 1 hour to allow for dye uptake.
To test for antagonist activity, test compounds at a final concentration range between 0.32 nM-10 μM (diluted in assay buffer) are added to the assay wells and allowed to incubate for 10 minutes prior to stimulation with PK1. After incubation with test compounds the assay plate is placed in a FLIPR Tetra (Molecular Devices) and PK1 (diluted in assay buffer) is added at the determined EC80 concentration (final). Ligand-dependent changes in intracellular calcium levels are determined by measuring changes in fluorescence of the dye at […] following excitation at 485 nm.

human PKR1 receptors, sequence (Q8TCW9 whole entry): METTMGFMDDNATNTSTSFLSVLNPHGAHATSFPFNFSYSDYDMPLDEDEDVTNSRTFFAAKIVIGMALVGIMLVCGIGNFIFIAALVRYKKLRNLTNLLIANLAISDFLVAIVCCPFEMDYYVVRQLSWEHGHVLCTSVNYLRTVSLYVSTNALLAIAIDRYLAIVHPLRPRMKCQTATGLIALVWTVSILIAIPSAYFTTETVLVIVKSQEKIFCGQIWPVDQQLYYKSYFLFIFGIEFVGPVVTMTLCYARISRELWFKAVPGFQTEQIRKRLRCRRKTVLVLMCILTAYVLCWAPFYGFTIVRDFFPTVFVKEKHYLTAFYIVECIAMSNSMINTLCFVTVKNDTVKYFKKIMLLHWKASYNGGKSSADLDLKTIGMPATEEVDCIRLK

SMILES | IC50 [nM]
Cc1[nH]nc(C2CC2)c1S(=O)(=O)N1CCC(Cc2ccc(Cl)c(F)c2)CC1 [Example 1, 4-(4-Chloro-3-fluorobenzyl)-1-((3-cyclopropyl-5-methyl-1H-pyrazol-4-yl)sulfonyl)piperidine] | 1370
COC(=O)C(=C1CCN(S(=O)(=O)c2c(C)n[nH]c2C)CC1)c1ccc(Cl)cc1 [Example 2, Methyl 2-(4-Chlorophenyl)-2-(1-((3,5-dimethyl-1H-pyrazol-4-yl)sulfonyl)piperidin-4-ylidene)acetate] | 3100
Cc1n[nH]c(C)c1S(=O)(=O)N1CCC(=C(C#N)c2ccc(Cl)cc2)CC1 [Example 3, 2-(4-Chlorophenyl)-2-(1-((3,5-dimethyl-1H-pyrazol-4-yl)sulfonyl)piperidin-4-ylidene)acetonitrile] | 40
Cc1n[nH]c(C)c1S(=O)(=O)N1CCC(=C(C#N)c2c(F)cccc2F)CC1 [Example 4, 2-(2,6-Difluorophenyl)-2-(1-((3,5-dimethyl-1H-pyrazol-4-yl)sulfonyl)piperidin-4-ylidene)acetonitrile] | 3680
CCc1n[nH]c(CC)c1S(=O)(=O)N1CCC(=C(C#N)c2ccc(Cl)cc2)CC1 [Example 6, 2-(4-Chlorophenyl)-2-(1-((3,5-diethyl-1H-pyrazol-4-yl)sulfonyl)piperidin-4-ylidene)acetonitrile] | 50
Cc1c(S(=O)(=O)N2CCC(=C(C#N)c3ccc(Cl)cc3)CC2)c(C(F)(F)F)nn1C [Example 7, 2-(4-Chlorophenyl)-2-(1-((1,5-dimethyl-3-(trifluoromethyl)-1H-pyrazol-4-yl)sulfonyl)piperidin-4-ylidene)acetonitrile] | 210
Cc1nn(C)c(C)c1S(=O)(=O)N1CCC(=C(C#N)c2c(F)cccc2F)CC1 [Example 8, 2-(2,6-Difluorophenyl)-2-(1-((1,3,5-trimethyl-1H-pyrazol-4-yl)sulfonyl)piperidin-4-ylidene)acetonitrile] | 5430
CC(=C1CCN(S(=O)(=O)c2c(C)n[nH]c2C)CC1)c1ccc(Cl)cc1 [Example 13] | 760
Cc1n[nH]c(C)c1S(=O)(=O)N1CCC(=Cc2ccc(Cl)cc2)CC1 [Example 14, 4-(4-Chlorobenzylidene)-1-((3,5-dimethyl-1H-pyrazol-4-yl)sulfonyl)piperidine] | 760
Cc1n[nH]c(C)c1S(=O)(=O)N1CCC(=C(F)c2ccc(Cl)cc2)CC1 [Example 16, 4-((4-Chlorophenyl)fluoromethylene)-1-((3,5-dimethyl-1H-pyrazol-4-yl)sulfonyl)piperidine] | 160
Cc1n[nH]c(C)c1S(=O)(=O)N1CCC(=C(F)c2ccc(F)c(Cl)c2)CC1 [Example 17, 4-((3-Chloro-4-fluorophenyl)fluoromethylene)-1-((3,5-dimethyl-1H-pyrazol-4-yl)sulfonyl) piperidine] | 1880
Cc1n[nH]c(C)c1S(=O)(=O)N1CCC(=C(F)c2ccc(Cl)cc2Cl)CC1 [Example 18, 4-((2,4-Dichlorophenyl)fluoromethylene)-1-((3,5-dimethyl-1H-pyrazol-4-yl)sulfonyl)piperidine] | 260
Cc1n[nH]c(C)c1S(=O)(=O)N1CCC(=C(F)c2ccc(Cl)c(F)c2)CC1 [Example 20, 4-((4-Chloro-3-fluorophenyl)fluoromethylene)-1-((3,5-dimethyl-1H-pyrazol-4-yl)sulfonyl)piperidine] | 190
Cc1n[nH]c(C)c1S(=O)(=O)N1CCC(=C(F)c2cnc3ccccc3c2)CC1 [Example 23] | 60

The remaining molecules from weak to strong by IC50, led by results:

IC50 [nM] | SMILES
600 | Cc1n[nH]c(C)c1S(=O)(=O)N1CCC(=Cc2ccc(Cl)cc2F)CC1 [Example 11, 4-(4-Chloro-2-fluorobenzylidene)-1-((3,5-dimethyl-1H-pyrazol-4-yl)sulfonyl)piperidine]
550 | Cc1nn(C)c(C)c1S(=O)(=O)N1CCC(=Cc2ccc(Cl)cc2F)CC1 [Example 12, 4-(4-Chloro-2-fluorobenzylidene)-1-((1,3,5-trimethyl-1H-pyrazol-4-yl)sulfonyl)piperidine]
520 | Cc1n[nH]c(C)c1S(=O)(=O)N1CCC(=C(F)c2ccc(Cl)c(Cl)c2)CC1 [Example 19, 4-((3,4-Dichlorophenyl)fluoromethylene)-1-((3,5-dimethyl-1H-pyrazol-4-yl)sulfonyl)piperidine]
470 | Cc1n[nH]c(C)c1S(=O)(=O)N1CC/C(=C(\C#N)c2ccc(Cl)cc2)C(C)C1 (stereo not shown) [Example 10, 2-(4-Chlorophenyl)-2-(1-((3,5-dimethyl-1H-pyrazol-4-yl)sulfonyl)-3-methylpiperidin-4-ylidene) acetonitrile]
400 | Cc1n[nH]c(C)c1S(=O)(=O)N1CCC(=C(F)c2ccc(Cl)cc2F)CC1 [Example 21, 4-((4-Chloro-2-fluorophenyl)fluoromethylene)-1-((3,5-dimethyl-1H-pyrazol-4-yl)sulfonyl)piperidine]
180 | Cc1n[nH]c(C)c1S(=O)(=O)N1CCC(=C(C#N)c2ccc(Cl)cc2F)CC1 [Example 5, 2-(4-Chloro-2-fluorophenyl)-2-(1-((3,5-dimethyl-1H-pyrazol-4-yl)sulfonyl)piperidin-4-ylidene)acetonitrile]
150 | Cc1n[nH]c(C)c1S(=O)(=O)N1CCC(=C(C#N)c2ccc(OC(F)(F)F)cc2)CC1 [Example 9]
40 | Cc1nn(C)c(C)c1S(=O)(=O)N1CCC(=C(C#N)c2ccc(Cl)cc2)CC1 [Example 15, 2-(4-Chlorophenyl)-2-(1-((1,3,5-trimethyl-1H-pyrazol-4-yl)sulfonyl)piperidin-4-ylidene)acetonitrile]
